Source: patent publication US20210213137A1, “COMPOSITIONS TO TREAT ULTRAVIOLET (UV)-INDUCED SKIN INJURY” (Mayo Foundation for Medical Education and Research, priority 2016, published 2021)

Columns and labels:
primary melanoma tumor = assay: Mouse model of melanoma with chronic UVB exposure; assay type: in vivo, mice; conditions: summary statement
Procedure: FIG. 3A. […] For Tumor+UV group * p<0.05, ** p<0.01 compared to tumor only, § p<0.05 compared to Tumor+UV+Tx group. No significant difference between tumor only and tumor+UV+Tx group at all time points. Data based on 3 experiments (n=5). FIG. 3B. […] FIG. 3C. Quantification of vessel density via CD31 staining, a marker of vessels.
FIG. 4A. Schematic diagram of experimental setup corresponding to FIG. 3A. All mice were injected with tumor on their right flank on Day 0. Luciferase imaging was done on day 5. Based on luciferase imaging data, mice were assigned to different groups (no UV—tumor only, tumor+UV, and tumor+UV+Tx). Starting on day 6, 1×1 cm area on the tumor was exposed to UVB. Vehicle or treatment was applied 2 hours post UVB exposure. A subset of the mice (n=4) was sacrificed on day 6, 10, 14 and 19 for analysis. FIG. 4B. Survival curve of mice in a separate analogous tumor study to the one represented in FIG. 3A.

mice skin = assay: UVB-induced skin injury in mice (chronic and acute UVB exposure); assay type: in vivo; conditions: topical administration; summary statement
Procedure: (§1) FIG. 2A. […] FIG. 2B. […] 1×1 cm are on the right flank of the mice were exposed to UVB 3 times/week for 3 weeks (n=5). Either vehicle or GNP-VEGF antibody was applied to the area 2 hours after exposure. FIG. 2C. […] All treatments were applied 2 hours post-UVB exposure. Data representative of 2 experiments, n=5. Ear thickness was measured 2 days after UVB exposure. Avastin® and 2C3 are VEGF antibodies. FIG. 2D. Topical administration of GNP-VEGF antibody or small molecular inhibitor (SMI) of VEGF signaling, sorafenib, reduces edema. All treatments were applied 2 hours post UVB exposure. Data representative of 2 experiments, n=5. Ear thickness was measured 2 days after UVB exposure.
Vascular endothelial growth factor (VEGF) was induced by UVB light and works concomitantly with ROS to induce the pathway, and was identified as an upstream regulator of the inflammation pathway.

mouse ears = assay: UVB-induced ear edema (ear thickness) in mice; assay type: in vivo
Source text: FIG. 1A. Timeline of the acute and chronic effects of UV-induced skin injury. FIG. 1B. Quantitative PCR was used to measure induction of VEGF transcript in mouse skin upon exposure to various doses of UVB (n=3 mice/group). FIG. 1C. Representative photographs of mouse ears two days after UVB exposure. UVB induces angiogenesis in the ear of mice. FIG. 1D. Systemic administration of VEGF antibody 2C3 reduces edema as shown by 50% decrease in ear thickness (p=0.0101, n=4).
as §1

Compound | melanoma tumor growth (primary melanoma tumor) | skin injury following UVB exposure (mice skin) | acute effects of UV-induced skin damage (mouse ears; topical administration, mice) | edema (ear thickness) (mouse ears; topical, 2 hours post UVB exposure, ear thickness 2 days after UVB, n=5, FIG. 2D)
bevacizumab [Avastin®] | prevented and/or reduced melanoma tumor growth | prevented and/or reduced skin injury |  | 
CNC(=O)c1cc(Oc2ccc(NC(=O)Nc3ccc(Cl)c(C(F)(F)F)c3)cc2)ccn1 [sorafenib] |  | prevented and/or reduced skin injury | inhibited the acute effects of UV-induced skin damage | reduces edema
